Reference: ChEMBL document CHEMBL1671617, “Correlation of antimicrobial resistance with beta-lactamases, the OmpA-like porin, and efflux pumps in clinical isolates of Acinetobacter baumannii endemic to New York City” (2008)

Tests used:
Assay type in all cases: functional
[1] = test system: Acinetobacter baumannii; assay: Antimicrobial activity against ISAba1 linked with the blaOXA-51-type beta-lactamase harboring Acinetobacter baumannii beta clonal group isolate 14 expressing ompA, adeB, adeM, aacA4, blaSHV-5 by Etest method
[2] = test system: Acinetobacter baumannii; assay: Antimicrobial activity against ISAba1 linked with the blaOXA-51-type beta-lactamase harboring Acinetobacter baumannii lambda clonal group isolate 28 expressing ampC, ompA, adeM, aadB, aadA1 by Etest method
[3] = test system: Acinetobacter baumannii; assay: Antimicrobial activity against Acinetobacter baumannii nu clonal group isolate 31 expressing ampC, ompA, adeB, adeM, aadB, aadA2 by Etest method
[4] = test system: Acinetobacter baumannii; assay: Antimicrobial activity against Acinetobacter baumannii unique clonal group isolate 37 expressing ampC, ompA, adeB, adeM by Etest method
[5] = test system: Acinetobacter baumannii; assay: Antimicrobial activity against ISAba1 linked with the blaOXA-51-type beta-lactamase harboring Acinetobacter baumannii beta clonal group isolate 13 expressing ompA, adeB, adeM, aacA4, blaSHV-5 by Etest method
[6] = test system: Acinetobacter baumannii; assay: Antimicrobial activity against ISAba1 linked with the blaOXA-51-type beta-lactamase harboring Acinetobacter baumannii beta clonal group isolate 11 expressing ompA, adeB, adeM, blaSHV-5 by Etest method
[7] = test system: Acinetobacter baumannii; assay: Antimicrobial activity against Acinetobacter baumannii nu clonal group isolate 32 expressing ampC, ompA, adeB, adeM, aadB, aadA2 by Etest method
[8] = test system: Acinetobacter baumannii; assay: Antimicrobial activity against ISAba1 linked with the blaOXA-51-type beta-lactamase harboring Acinetobacter baumannii alpha clonal group isolate 1 expressing ampC, ompA, adeB, adeM by Etest method
[9] = test system: Acinetobacter baumannii; assay: Antimicrobial activity against ISAba1 linked with the blaOXA-51-type beta-lactamase harboring Acinetobacter baumannii unique clonal group isolate 40 expressing ampC, ompA, adeB, adeM, aadA1, aacA4, aacC2, blaSHV-5 by Etest method
[10] = test system: Acinetobacter baumannii; assay: Antimicrobial activity against ISAba1 linked with the blaOXA-51-type beta-lactamase harboring Acinetobacter baumannii beta clonal group isolate 9 expressing ampC, ompA, adeB, adeM by Etest method
[11] = test system: Acinetobacter baumannii; assay: Antimicrobial activity against ISAba1 linked with the blaOXA-51-type beta-lactamase harboring Acinetobacter baumannii alpha clonal group isolate 8 expressing ampC, ompA, adeB, adeM, aacC1, aadA1 by Etest method
[12] = test system: Acinetobacter baumannii; assay: Antimicrobial activity against ISAba1 linked with the blaOXA-51-type beta-lactamase harboring Acinetobacter baumannii alpha clonal group isolate 7 expressing ampC, ompA, adeB, adeM, blaSHV-5 by Etest method
[13] = test system: Acinetobacter baumannii; assay: Antimicrobial activity against Acinetobacter baumannii unique clonal group isolate 39 expressing ampC, ompA, adeM by Etest method
[14] = test system: Acinetobacter baumannii; assay: Antimicrobial activity against ISAba1 linked with the blaOXA-51-type beta-lactamase harboring Acinetobacter baumannii beta clonal group isolate 17 expressing ompA, adeB, adeM, aacA4, blaSHV-5 by Etest method
[15] = test system: Acinetobacter baumannii; assay: Antimicrobial activity against ISAba1 linked with the blaOXA-51-type beta-lactamase harboring Acinetobacter baumannii zeta clonal group isolate 26 expressing ampC, ompA, adeB, adeM, aadA1, aacA4, aacC2, blaSHV-5 by Etest method
[16] = test system: Acinetobacter baumannii; assay: Antimicrobial activity against ISAba1 linked with the blaOXA-51-type beta-lactamase harboring Acinetobacter baumannii beta clonal group isolate 16 expressing ompA, adeB, adeM, aacA4, blaSHV-5 by Etest method
[17] = test system: Acinetobacter baumannii; assay: Antimicrobial activity against ISAba1 linked with the blaOXA-51-type beta-lactamase harboring Acinetobacter baumannii beta clonal group isolate 12 expressing ompA, adeB, adeM, aacA4, aacC2, blaSHV-5 by Etest method
[18] = test system: Acinetobacter baumannii; assay: Antimicrobial activity against Acinetobacter baumannii lambda clonal group isolate 27 expressing ampC, ompA, adeB, adeM, aadB, aadA1 by Etest method
[19] = test system: Acinetobacter baumannii; assay: Antimicrobial activity against ISAba1 linked with the blaOXA-51-type beta-lactamase harboring Acinetobacter baumannii zeta clonal group isolate 21 expressing ampC, ompA, adeB, adeM, aacC2, blaSHV-5 by Etest method
[20] = test system: Acinetobacter baumannii; assay: Antimicrobial activity against ISAba1 linked with the blaOXA-51-type beta-lactamase harboring Acinetobacter baumannii zeta clonal group isolate 24 expressing ampC, ompA, adeB, adeM, aadA1, aacA4, aacC2, blaSHV-5 by Etest method
[21] = test system: Acinetobacter baumannii; assay: Antimicrobial activity against Acinetobacter baumannii eta clonal group isolate 35 expressing ampC, ompA, adeB, adeM by Etest method
[22] = test system: Acinetobacter baumannii; assay: Antimicrobial activity against ISAba1 linked with the blaOXA-51-type beta-lactamase harboring Acinetobacter baumannii zeta clonal group isolate 25 expressing ampC, ompA, adeB, adeM, aadA1, aacA4, aacC2, blaSHV-5 by Etest method
[23] = test system: Acinetobacter baumannii; assay: Antimicrobial activity against Acinetobacter baumannii alpha clonal group isolate 4 expressing ampC, ompA, adeB, adeM, aacC1, aadA1 by Etest method
[24] = test system: Acinetobacter baumannii; assay: Antimicrobial activity against ISAba1 linked with the blaOXA-51-type beta-lactamase harboring Acinetobacter baumannii alpha clonal group isolate 6 expressing ampC, ompA, adeB, adeM, aacC1, aadA1 by Etest method
[25] = test system: Acinetobacter baumannii; assay: Antimicrobial activity against Acinetobacter baumannii alpha clonal group isolate 5 expressing ampC, ompA, adeB, adeM, aacC1, aadA1 by Etest method
[26] = test system: Acinetobacter baumannii; assay: Antimicrobial activity against Acinetobacter baumannii unique clonal group isolate 38 expressing ampC, ompA, adeB, adeM by Etest method
[27] = test system: Acinetobacter baumannii; assay: Antimicrobial activity against Acinetobacter baumannii nu clonal group isolate 34 expressing ampC, ompA, adeB, adeM by Etest method
[28] = test system: Acinetobacter baumannii; assay: Antimicrobial activity against Acinetobacter baumannii alpha clonal group isolate 2 expressing ampC, ompA, adeB, adeM, aacC1, aadA1 by Etest method
[29] = test system: Acinetobacter baumannii; assay: Antimicrobial activity against Acinetobacter baumannii eta clonal group isolate 36 expressing ampC, ompA, adeB, adeM by Etest method
[30] = test system: Acinetobacter baumannii; assay: Antimicrobial activity against ISAba1 linked with the blaOXA-51-type beta-lactamase harboring Acinetobacter baumannii lambda clonal group isolate 30 expressing ampC, ompA, adeB, adeM, aadB, aadA1 by Etest method
[31] = test system: Acinetobacter baumannii; assay: Antimicrobial activity against ISAba1 linked with the blaOXA-51-type beta-lactamase harboring Acinetobacter baumannii lambda clonal group isolate 29 expressing ampC, ompA, adeM, aadB, aadA1 by Etest method
[32] = test system: Acinetobacter baumannii; assay: Antimicrobial activity against ISAba1 linked with the blaOXA-51-type beta-lactamase harboring Acinetobacter baumannii zeta clonal group isolate 19 expressing ampC, ompA, adeB, adeM, aacC2 by Etest method
[33] = test system: Acinetobacter baumannii; assay: Antimicrobial activity against ISAba1 linked with the blaOXA-51-type beta-lactamase harboring Acinetobacter baumannii beta clonal group isolate 18 expressing ompA, adeB, adeM, aacA4, blaSHV-5 by Etest method
[34] = test system: Acinetobacter baumannii; assay: Antimicrobial activity against ISAba1 linked with the blaOXA-51-type beta-lactamase harboring Acinetobacter baumannii beta clonal group isolate 15 expressing ompA, adeB, adeM, aacA4, blaSHV-5 by Etest method
[35] = test system: Acinetobacter baumannii; assay: Antimicrobial activity against Acinetobacter baumannii nu clonal group isolate 33 expressing ampC, ompA, adeB, adeM by Etest method
[36] = test system: Acinetobacter baumannii; assay: Antimicrobial activity against ISAba1 linked with the blaOXA-51-type beta-lactamase harboring Acinetobacter baumannii beta clonal group isolate 10 expressing ompA, adeB, adeM, aacA4, blaSHV-5 by Etest method
[37] = test system: Acinetobacter baumannii; assay: Antimicrobial activity against ISAba1 linked with the blaOXA-51-type beta-lactamase harboring Acinetobacter baumannii zeta clonal group isolate 20 expressing ampC, ompA, adeB, adeM, aacC2 by Etest method
[38] = test system: Acinetobacter baumannii; assay: Antimicrobial activity against Acinetobacter baumannii alpha clonal group isolate 3 expressing ampC, ompA, adeB, adeM, aacC1, aadA1 by Etest method
[39] = test system: Acinetobacter baumannii; assay: Antimicrobial activity against ISAba1 linked with the blaOXA-51-type beta-lactamase harboring Acinetobacter baumannii zeta clonal group isolate 23 expressing ampC, ompA, adeB, adeM, aadA1, aacA4, aacC2, aphA6 by Etest method
[40] = test system: Acinetobacter baumannii; assay: Antimicrobial activity against ISAba1 linked with the blaOXA-51-type beta-lactamase harboring Acinetobacter baumannii zeta clonal group isolate 22 expressing ampC, ompA, adeB, adeM, aadA1, aacA4, aacC2, blaSHV-5 by Etest method

For GENTAMICIN, the MIC [1] was 8 µg/mL, the MIC [2] was 16 µg/mL and the MIC [3] was greater than 256 µg/mL. The MIC [4] was 6 µg/mL, the MIC [5] was 8 µg/mL and the MIC [6] was 2 µg/mL. For the same molecule, the MIC [7] was greater than 256 µg/mL, the MIC [8] was 1 µg/mL and the MIC [9] was greater than 256 µg/mL. For the same molecule, the MIC [10] was 6 µg/mL, the MIC [11] was 192 µg/mL and the MIC [12] was 2 µg/mL. It also gave an MIC [13] of 0.38 µg/mL, an MIC [14] of 8 µg/mL and an MIC [15] greater than 256 µg/mL. For the same molecule, the MIC [16] was 8 µg/mL, the MIC [17] was greater than 256 µg/mL and the MIC [18] was 1.5 µg/mL. For the same molecule, the MIC [19] was greater than 256 µg/mL, the MIC [20] was greater than 256 µg/mL and the MIC [21] was 3 µg/mL. It also gave an MIC [22] greater than 256 µg/mL, an MIC [23] of 12 µg/mL and an MIC [24] of 8 µg/mL. The MIC [25] was 12 µg/mL, the MIC [26] was 0.25 µg/mL and the MIC [27] was 2 µg/mL. For the same molecule, the MIC [28] was 12 µg/mL, the MIC [29] was 3 µg/mL and the MIC [30] was greater than 256 µg/mL. The MIC [31] was 16 µg/mL, the MIC [32] was greater than 256 µg/mL and the MIC [33] was 64 µg/mL. For the same molecule, the MIC [34] was 8 µg/mL, the MIC [35] was 2 µg/mL and the MIC [36] was 4 µg/mL. The MIC [37] was greater than 256 µg/mL, the MIC [38] was 12 µg/mL and the MIC [39] was greater than 256 µg/mL. For the same molecule, the MIC [40] was greater than 256 µg/mL.
Work on `C[C@H]1COc2c(N3CCN(C)CC3)c(F)cc3c(=O)c(C(=O)O)cn1c23.C[C@H]1COc2c(N3CCN(C)CC3)c(F)cc3c(=O)c(C(=O)O)cn1c23.O` [LEVOFLOXACIN] yielded an MIC [1] greater than 32 µg/mL, an MIC [3] greater than 12 µg/mL and an MIC [4] of 6 µg/mL. The MIC [5] was greater than 32 µg/mL, the MIC [6] was greater than 32 µg/mL and the MIC [7] was greater than 12 µg/mL. For the same molecule, the MIC [8] was 16 µg/mL, the MIC [9] was greater than 32 µg/mL and the MIC [10] was greater than 32 µg/mL. The MIC [11] was 32 µg/mL, the MIC [12] was 6 µg/mL and the MIC [13] was 0.09 µg/mL. For the same molecule, the MIC [14] was greater than 32 µg/mL, the MIC [15] was 16 µg/mL and the MIC [16] was greater than 32 µg/mL. For the same molecule, the MIC [17] was greater than 32 µg/mL, the MIC [18] was 3 µg/mL and the MIC [19] was greater than 32 µg/mL. For the same molecule, the MIC [20] was 16 µg/mL, the MIC [21] was greater than 6 µg/mL and the MIC [22] was 16 µg/mL. It also gave an MIC [23] greater than 12 µg/mL, an MIC [24] of 6 µg/mL and an MIC [25] greater than 12 µg/mL. The MIC [26] was 0.13 µg/mL, the MIC [27] was 4 µg/mL and the MIC [28] was greater than 12 µg/mL. For the same molecule, the MIC [29] was greater than 6 µg/mL, the MIC [30] was 16 µg/mL and the MIC [32] was 12 µg/mL. For the same molecule, the MIC [33] was greater than 32 µg/mL, the MIC [34] was greater than 32 µg/mL and the MIC [35] was 4 µg/mL. It also gave an MIC [36] greater than 32 µg/mL, an MIC [37] of 12 µg/mL and an MIC [38] greater than 12 µg/mL. For the same molecule, the MIC [39] was 12 µg/mL and the MIC [40] was 16 µg/mL.
